Test results reported in US8846670B2, “1,2,3,4-tetrahydro-pyrimido(1,2-a)pyrimidin-6-one derivatives, preparation thereof, and pharmaceutical use thereof” (priority 2009, dated 2014).

Assays:
[1] = system: AKT protein phosphorylated on serine 473 (P-AKT-S473) in PC3 human prostate carcinoma line; test: Study of pAKT expression in PC3 human prostate carcinoma cells measured by the MSD Multi-spot Biomarker Detection technique (Test B); type: cell-based; conditions: MSD sandwich immunoassay, 1 to 2 h incubation, absolute IC50, mean of 2 experiments
Procedure: The inhibitory activity of the molecules on AKT phosphorylation is measured either by western blotting using the technique described below, or by the MSD Multi-spot Biomarker detection technique from Meso Scale Discovery also described below.
Study of pAKT Expression in PC3Human Prostate Carcinoma Cells Measured by the MSD Multi-Spot Biomarker Detection Technique from Meso Scale Discovery (Test B):
The primary antibody specific for P-AKT-S473 (Kit #K151CAD) is coated onto an electrode in each well of the 96-well plates of the MSD kit: after the addition of a protein lysate to each well, the signal is visualised by adding a secondary detection antibody labelled with an electrochemiluminescent compound. The procedure followed is that described in the kit.
On day 2, the cells are incubated in the presence or absence of the test products for 1 to 2 h at 37° C. in the presence of 5% of CO2. The molecules, diluted in dimethyl sulphoxide (DMSO Sigma #D2650), are added from a 20-times concentrated stock solution, the final percentage of DMSO being 0.1%.
After this incubation, the cells are lysed for the preparation of the proteins. […] At this stage, the plates containing the lysates can be frozen at −20° C. or at −80° C.
The wells of the 96-well plates of the MSD kit are saturated for 1 h at ambient temperature with the blocking solution of the MSD kit. Four washes are carried out with 150 μl of Tris Wash Buffer of the MSD kit. The lysates previously prepared are transferred into the 96-well multi-spot plates of the MSD kit and incubated for 1 h at ambient temperature, with shaking. Four washes are carried out with 150 μl of Tris Wash Buffer of the MSD kit. 25 μl of the MSD sulfo-tag detection antibody solution are added to the wells and incubated for 1 h at ambient temperature, with shaking. Four washes are carried out with 150 μl of Tris Wash Buffer of the MSD kit. 150 μl of Read Buffer of the MSD kit are added to the wells and the plates are read immediately on the S12400 instrument from Meso Scale Discovery.
The instrument measures a signal for each well. Wells without cells and containing the lysis buffer serve to determine the background noise that will be subtracted from all the measurements (min). The wells containing cells in the absence of product and in the presence of 0.1% DMSO are considered to be the 100% signal (max). The percentage inhibition is calculated for each concentration of test product according to the following formula: (1−((test−min)/(max−min)))×100.
2 independent experiments make it possible to calculate the mean of the IC50 values.

[2] = system: translocation of the LC3 protein in Hela GFP-LC3 cells; test: Study of the translocation of the LC3 protein in Hela human cells, measured by image analysis cytometry (Test C, autophagy); type: cell-based; conditions: 2 h, Hela GFP-LC3 cells with LC3 granulations, EBSS + 10 μM hydroxychloroquine, absolute IC50
Procedure: The inhibitory activity of the molecules on autophagy is measured by the translocation of the LC3 protein from the cytoplasm to the autophagosomes. For this, Hela cells were transfected with a vector encoding the chimeric protein GFP-LC3. A Hela clone stably expressing the GFP-LC3 protein was selected.
Study of the Translocation of the LC3 Protein in Hela Human Cells, Measured by Image Analysis Cytometry (Test C):
On day 2, the cells are washed twice with EBSS (Sigma #E3024). The cells are then incubated in EBSS, 10 μM of hydroxychloroquine and test products for 2 h at 37° C. in the presence of 5% CO2. The molecules are diluted in dimethyl sulphoxide (DMSO Sigma #D2650), the final DMSO percentage being 0.1%.
After this incubation, the cells are fixed with 4% paraformaldehyde (Sigma #HT501128 4 L) for 10 min. […] The 96-well plates are then read with the iCyte image analysis cytometer (Compucyte).
Two independent experiments make it possible to calculate the mean of the IC50 values.

[3] = Homo sapiens, PC-3, P-AKT-S473 in PC3 cells

Structure (SMILES) | IC50 [1, 3] | IC50 ([2]; Homo sapiens, HeLa) | IC50 ([1]; P-AKT-S473 in PC3 cells) | IC50 [2]
O=c1cc(N2CCOCC2)nc2n1CC[C@@H](C(F)(F)F)N2Cc1ccc(F)cc1F [Example 30, (8S)-9-(2,4-difluorobenzyl)-2-(morpholin-4-yl)-8-(trifluoro-methyl)-6,7,8,9-tetrahydro-4H-pyrimido[1,2-a]pyrimidin-4-one] | 43 nM | 212 nM |  | 
O=C(c1ccc(F)cc1F)N1c2nc(N3CCOCC3)cc(=O)n2CC[C@H]1C(F)(F)F [Example 44, (8S)-9-[(2,4-difluorophenyl)carbonyl]-2-(morpholin-4-yl)-8-(trifluoromethyl)-6,7,8,9-tetrahydro-4 H-pyrimido[1,2-a]pyrimidin-4-one] | 108 nM | > 1000 nM |  | 
CC(c1ccc(F)cc1)N1c2nc(N3CCOCC3)cc(=O)n2CC[C@H]1C(F)(F)F (single isomer, unassigned) [Example 34, (8S)-9-[(1R or 1S)-1-(4-fluorophenyl)ethyl]-2-(morpholin-4-yl)-8-(trifluoromethyl)-6,7,8,9-tetrahydro-4H-pyrimido[1,2-a]pyrimidin-4-one] |  |  | 22 nM | 35 nM
CC(c1ccc(F)cc1)N1c2nc(N3CCOCC3)cc(=O)n2CC[C@H]1C(F)(F)F (single isomer, unassigned) [Example 33, (8S)-9-[(1R or 1S)-1-(4-fluorophenyl)ethyl]-2-(morpholin-4-yl)-8-(trifluoromethyl)-6,7,8,9-tetrahydro-4H-pyrimido[1,2-a]pyrimidin-4-one] | 24 nM | 221 nM |  | 
O=c1cc(N2CCOCC2)nc2n1CC[C@@H](C(F)(F)F)N2Cc1cc(F)cc(F)c1 [Example 29, (8S)-9-(3,5-difluorobenzyl)-2-(morpholin-4-yl)-8-(trifluoro-methyl)-6,7,8,9-tetrahydro-4H-pyrimido[1,2-a]pyrimidin-4-one] | 22 nM | > 1000 nM |  | 
O=c1cc(N2CCOCC2)nc2n1CC[C@@H](C(F)(F)F)N2Cc1csc2ccc(Cl)cc12 [Example 32, (8S)-9-[(5-chloro-1-benzothiophen-3-yl)methyl]-2-(morpholin-4-yl)-8-(trifluoromethyl)-6,7,8,9-tetrahydro-4H-pyrimido[1,2-a]pyrimidin-4-one] | 33 nM | 780 nM |  | 

Continued by falling IC50 ([2]; Homo sapiens, HeLa), values first:

IC50 [1, 3] | IC50 ([2]; Homo sapiens, HeLa) | IC50 ([1]; P-AKT-S473 in PC3 cells) | IC50 [2] | Structure (SMILES)
4 nM | 192 nM |  |  | O=c1c(F)c(N2CCOCC2)nc2n1CC[C@@H](C(F)(F)F)N2Cc1ccccc1 [Example 41, (8S)-9-benzyl-3-fluoro-2-(morpholin-4-yl)-8-(trifluoro-methyl)-6,7,8,9-tetrahydro-4 H-pyrimido[1,2-a]pyrimidin-4-one]
 | 167 nM | 2 nM |  | CC(c1ccccc1F)N1c2nc(N3CCOCC3)cc(=O)n2CC[C@H]1C(F)(F)F (single isomer, unassigned) [Example 38, (8S)-9-[(1R or 1S)-1-(2-fluorophenyl)ethyl]-2-(morpholin-4-yl)-8-(trifluoromethyl)-6,7,8,9-tetrahydro-4 H-pyrimido[1,2-a]pyrimidin-4-one]
18 nM | 157 nM |  |  | O=c1cc(N2CCOCC2)nc2n1CC[C@@H](C(F)(F)F)N2c1ccc(Cl)cc1 [Example 36, (8S)-9-(4-chlorophenyl)-2-(morpholin-4-yl)-8-(trifluoro-methyl)-6,7,8,9-tetrahydro-4H-pyrimido[1,2-a]pyrimidin-4-one]
7 nM | 38 nM |  |  | COc1cccc(CCN2c3nc(N4CCOCC4)cc(=O)n3CC[C@H]2C(F)(F)F)c1 [Example 25]
1 nM | 5 nM |  |  | COc1ccc([C@H](O)CN2c3nc(N4CCOCC4)cc(=O)n3CC[C@H]2C(F)(F)F)cc1 [Example 7, (8S)-9-[(2S)-2-hydroxy-2-(4-methoxyphenyl)ethyl]-2-(morpholin-4-yl)-8-(trifluoromethyl)-6,7,8,9-tetrahydro-4H-pyrimido[1,2-a]pyrimidin-4-one]
